Data reported in patent publication US20250382305A1 (PTC THERAPEUTICS, INC., priority 2022, published 2025).

Key:
[1] = tested on: Total ATXN3 (tATXN3) protein; experiment: Endogenous Total ATXN3 (tATXN3) Protein Assay (MSD immunoassay of cell lysates); format: cell-based; conditions: average IC50, total ATXN3 protein in cell lysate after 48 h with compound (Table 1)
Procedure, shortened: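 By electrochemiluminescent MSD sandwich immunoassay (mouse monoclonal capture, rabbit monoclonal and SULFO-TAG anti-rabbit detection), endogenous ATXN3 was quantified in lysates of cells treated 48 h at 37° C at 10,000 cells/well. Treatment used a 7-point 3.16-fold duplicate dilution series, with average IC50 grouped into star categories.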

ATXN3 pre-mRNA = experiment: RT-qPCR Assay to Quantify Exon 4 Skipping in ATXN3 pre-mRNA in Cells; format: cell-based; conditions: percent exon 4 skipping in ATXN3 pre-mRNA, RT-qPCR of cell lysates; average IC50
Procedure, shortened: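 IC50 derives from a dose-response fit of percent exon 4 skipping, quantified by RT-qPCR on crude lysates. Compounds tested as 7-point 3.16-fold dilutions in duplicate; cells (10,000/well) were exposed for 24 h at 37 °C before lysis.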

Molecule	IC50 [1]	IC50 (ATXN3 pre-mRNA)
(1R,5S,6R)-6-amino-5-(3-bromo-5-chloro-7-((thiophen-2-ylmethyl)amino)thieno[3,2-b]pyridin-2-yl)cyclohex-2-en-1-ol and (1S,5R,6S)-6-amino-5-(3-bromo-5-chloro-7-((thiophen-2-ylmethyl)amino)thieno[3,2-b]pyridin-2-yl)cyclohex-2-en-1-ol [Compound 153]	≤ 30 nM	≤ 30 nM
N[C@H]1CCC[C@@H]1c1sc2c(NCc3ccccc3)cc(Cl)nc2c1Cl [Compound 159, 2-((1S,2S)-2-aminocyclopentyl)-N-benzyl-3,5-dichlorothieno[3,2-b]pyridin-7-amine]	> 1000 nM	> 1000 nM
N[C@@H]1CCCC[C@H]1c1sc2c(NCc3cccs3)cc(Cl)nc2c1-c1ccccc1 [Compound 138]	30 to 300 nM	300 to 1000 nM
CCc1c([C@@H]2CCCCCC[C@H]2N)sc2c(NCc3cccs3)cc(Cl)nc12 [Compound 158, 2-((1R,2R)-2-aminocyclooctyl)-5-chloro-3-ethyl-N-(thiophen-2-ylmethyl)thieno[3,2-b]pyridin-7-amine]	> 1000 nM	> 1000 nM
